Patent US12208181B2, “Medication infusion components and systems” (MEDTRONIC MINIMED, INC., priority 2017, dated 2025)
Entries after “also recorded” stand apart in the source; their conditions may differ.

What was measured:
[1] = test system: diabetic porcine model; experiment: Insulin infusion site-loss study in diabetic porcine model (extended wear infusion set); assay type: in vivo, pig; details: for No site loss for: Sof-Set; for Effect on site-loss compared with control: diabetic pigs, agent given with insulin (Humalog) infusion, control without agent
Experimental: The objectives of this study include duplicating the site-loss phenomena observed in previous studies using a diabetic porcine model. Additionally, various infusion set configurations are evaluated for reducing site-loss and extending infusion set wear. Further, site-loss is mitigated using a response-inhibiting agent and/or infusion pump to increase reliability of wear for 3 days and extend infusion set wear beyond 3 days.
The objectives of this study include: duplicating the site-loss phenomena observed in previous studies using the diabetic porcine model; using the established diabetic porcine model to evaluate the effects of various infusion set designs on infusion site-loss; and testing if site-loss can be mitigated by direct pump infusing of immunosuppressant/anti-inflammatory drugs, and/or by modifying infusion set by drug coating.
This study is designed so that each set (inserted under anesthesia) is to be worn for 1 week unless there was set failure/dislodge. Glucose is monitored by a blood glucose meter and Enlite™ sensor. The criteria for determining site loss is that blood glucose is greater than 350 mg/dl and fails to decrease following an insulin dose correction. During biopsy pumps are removed but the cannula is maintained in-situ. Site skin is examined for edema/erythema (swell/redness) (see FIG. 8).

[2] = test system: diabetic porcine model; experiment: Local toxicity observation in diabetic porcine model; details: prefilled heparin/insulin, Sof-Set; heparin 100-800 U/mL insulin (U100)
[3] = test system: diabetic Yucatan pigs; experiment: Site-loss evaluation during CSII (Example 1); assay type: in vivo
From the text: (§1) The goal of studying insulin infusion site-loss using a diabetic porcine model is to establish the methods and animal model necessary to reproduce the phenomenon of site-loss in Continuous Subcutaneous Insulin Infusion (CSII). Methodologies are established for evaluating infusion sites in healthy and diabetic pigs, including device placement and animal management, glucose monitoring, insulin detection, pharmacokinetics, site harvesting, and pathological evaluation. The host response to implanted functional devices is assessed in healthy and diabetic pigs. Parameters that are believed to impact site-loss are varied until site-loss is observed.
Site-loss was evaluated using a criteria of a prolonged high blood glucose level (greater than 350 mg/dl) as well as being ineffectively controlled by increasing insulin basal/bolus rate. Site-loss observed was pig dependent, sometimes site-dependent. […] The other two pigs (#341425 and #341426) had no site-loss in 7 days if a proper site was located. In general, the pigs with observed site-loss were less responsive to a Humalog™ dose. Histologically, the predominant tissue response was inflammation and, with longer infusion, fibrosis. Inflammation scores trended to be of higher grade in diabetic pigs compared to normal pigs, with a larger inflammation area around the catheter tip. […]

[4] = test system: diabetic pig; experiment: Histopathology of infusion sites (inflammation at catheter tip and body); assay type: in vivo
From the text: FIG. 2A is a series of histologic evaluations at the catheter tip showing the inflammatory response (score), and size of the area with tissue reaction. “*” indicates the catheter location and “F” indicates normal fat. […] FIG. 2B is a series of graphs illustrating the inflammation at the catheter tip for diabetic and non-diabetic pigs. Localized inflammation loosely correlated with site-loss.
FIG. 2C is a series of graphs illustrating the predominate inflammation cells at the catheter tip and catheter body (qualitative). To isolate the main inflammation contributors, a catheter, a catheter infused with insulin (Humalog™), and a catheter infused with placebo were placed on a diabetic pig at the same time.
FIG. 2D is a series of graphs illustrating the predominate inflammation cells at the catheter tip and catheter body of an insulin injection port (i-Port™). To isolate the main inflammation contributors, a catheter, a catheter infused with insulin, and a catheter infused with placebo were placed on a diabetic pig. Compared to continuous infusion, the giant cells are missing in the i-Port™ study. […] As observed by the pathologist, the pigs may have developed a hypersensitivity to the Humalog™ and such a reaction would contribute to the inflammation seen (the degree that hypersensitivity is influencing the inflammation is unclear but it could be one of the main drivers).

[5] = test system: normal and diabetic Yucatan pigs; experiment: PK/PD study: blood glucose response to Humalog; assay type: in vivo
From the text: as §1

[6] = diabetic pigs, compared to catheter and placebo

Compound: CO[C@H]1C[C@@H]2CC[C@@H](C)[C@@](O)(O2)C(=O)C(=O)N2CCCC[C@H]2C(=O)O[C@H]([C@H](C)C[C@@H]2CC[C@@H](O)[C@H](OC)C2)CC(=O)[C@H](C)/C=C(\C)[C@@H](O)[C@@H](OC)C(=O)[C@H](C)C[C@H](C)/C=C/C=C/C=C/1C [rapamycin]
- Effect on Site-Loss: site-loss after / duration of wear ([1]; 1 pig using Sof-Set, rapamycin later found degraded in solution after use): 5 days
- Signs of improvement: recovery after ([1]; rapamycin dosed with Humalog): around 6 days
- No site loss for ([1]; rapamycin spiked in insulin, around 0.6 μg/day): more than 6 days

Compound: C[C@@H]1C[C@H]2[C@@H]3CCC4=CC(=O)C=C[C@]4(C)[C@@]3(F)[C@@H](O)C[C@]2(C)[C@@]1(O)C(=O)COP(=O)(O)O [DXP, Dexamethasone Phosphate]
- Effect on site-loss compared with control [1]: performing significantly worse than the control

Compound: heparin
- Infusion site active ([1]; Sof-Set with heparin dosed insulin (FIGS. 17, 18)): up to 13 days
- Site-loss (glucose monitoring) ([1]; U100 Humalog with heparin sodium, actual 3.55 mg/mL or 685 U/mL, continuous infusion, pigs IM3 and IM4): > 6 days
- Effect on site-loss compared with control [1]: performing significantly better than the control
- No site loss for ([1]; prefilled heparin/insulin, heparin 100-800 U/mL insulin (U100)): greater than 13 days
- Local toxicity [2]: No local toxicity was observed

Compound: Insulin lispro [Humalog]
- Site-loss observed at ([3]; pigs #341423 and #341424, blood glucose >350 mg/dl criterion): approximately 3 days
- No site-loss in ([3]; pigs #341425 and #341426, if a proper site was located): > 7 days
- Order of evaluated inflammation scores ([4]; catheter, catheter infused with insulin (Humalog), catheter infused with placebo on one diabetic pig): insulin≥placebo≥catheter; also recorded: insulin≥placebo≥cannula
- Localized inflammation [4, 6]: associated with increased localized inflammation
- Localized tissue fibrosis [4, 6]: main contributor to localized tissue fibrosis
- Blood glucose lowering [5]: effectively lower blood glucose level

Compound: C[C@H]1C[C@H]2[C@@H]3CCC4=CC(=O)C=C[C@]4(C)[C@@]3(F)[C@@H](O)C[C@]2(C)[C@@]1(O)C(=O)COP(=O)([O-])[O-].[Na+].[Na+] [BSP, Betamethasone Sodium phosphate]
- Effect on site-loss compared with control [1]: performing significantly worse than the control

Compound: dextran
- Infusion site active ([1]; Sof-Set with dextran dosed insulin (FIG. 22)): up to 6 days
- Effect on site-loss compared with control [1]: performing significantly better than the control
- Efficacy in extending infusion set wear / site-loss mitigation (in words) ([1]; diabetic porcine model): efficacy of dextran in extending infusion set wear
